The values that follow are results of earlier work, collected in patent US10993890B2, “Antifungal solution and foot wipe” (PELLI SKIN CO., LLC, priority 2018, dated 2021).

For data set [1] the following is noted: octanol/water partition coefficient of the solvent.
In another data set the test system is skin cells. The settings on record: 3% ethanol applied to skin cells over the course of two days.

For the molecule 1,3-dioxolan, in data set [1], the LogKow is reported as −0.37. As to `C1CCOCOC1` [1,3-Dioxepane], in data set [1], the LogKow is given as 0.7709.

On to `CC1COCO1` (centres unmarked) [4-Methyl-1,3-dioxolane], for which, in data set [1], the LogKow is listed as 0.3792. For the molecule `OC1COCOC1` [5-Hydroxy-1,3-dioxane], the LogKow in data set [1] is listed as −1.082. `CCO` [ethanol]: the “increase of cell death” value in the data set on skin cells is on record as 26%.
